Test results from ChEMBL document CHEMBL1139779, “3,3-diphenylpentane skeleton as a steroid skeleton substitute: novel inhibitors of human 5alpha-reductase 1” (Bioorg Med Chem Lett, 2007).

T1: 3-oxo-5-alpha-steroid 4-dehydrogenase 1 (Homo sapiens) (UniProt P18405)
T1 sequence (whole entry): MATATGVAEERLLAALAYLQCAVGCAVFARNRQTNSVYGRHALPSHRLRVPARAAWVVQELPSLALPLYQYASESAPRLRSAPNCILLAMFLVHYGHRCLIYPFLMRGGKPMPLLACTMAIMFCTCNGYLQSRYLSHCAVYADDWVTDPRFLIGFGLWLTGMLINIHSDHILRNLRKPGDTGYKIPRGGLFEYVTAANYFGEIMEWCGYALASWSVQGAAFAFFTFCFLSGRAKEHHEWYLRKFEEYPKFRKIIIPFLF

T2: 3-oxo-5-alpha-steroid 4-dehydrogenase 1 (Homo sapiens, UniProt P18405)
T2 sequence (P18405 whole entry): T1 sequence (whole entry)

B1: 3-oxo-5-alpha-steroid 4-dehydrogenase 1 (Homo sapiens), P18405 (protein)
chain: T1 sequence (whole entry)

Experiments:
[1] = biological target: T1, 3-oxo-5-alpha-steroid 4-dehydrogenase 1 (Homo sapiens); experiment: Inhibition of human 5-alpha reductase 1 expressed in LNCap cells at 1 uM; format: cell-based
[2] = biological target: T1, 3-oxo-5-alpha-steroid 4-dehydrogenase 1 (Homo sapiens); experiment: Inhibition of human 5-alpha reductase 1 expressed in LNCap cells at 10 uM; format: cell-based
[3] = biological target: T2, 3-oxo-5-alpha-steroid 4-dehydrogenase 1; experiment: Inhibition of human 5-alpha reductase 1 expressed in LNCap cells; format: cell-based
[4] = substrate: CCC(CC)(c1ccc(OC(=O)N(Cc2ccccc2)Cc2ccccc2)cc1)c1ccc(N(C)C(C)=O)cc1; experiment: Activity of 5-alpha reductase 1 at 1 uM

Molecule	inhibition [2]	further results
CCC(C)N(C(=O)Oc1ccc(C(CC)(CC)c2ccc(N(C)C(C)=O)cc2)cc1)C(C)CC (configuration not stated)	–	inhibition [1]: 22%
CCCC(CCC)(c1ccc(OC(=O)N(CC)CC)cc1)c1ccc(N(C)C(C)=O)cc1	27%	–
CCN(CC)C(=O)Oc1ccc(C2(c3ccc(N(C)C(C)=O)cc3)CCC2)cc1	16%	–
CCN(CC)C(=O)Oc1ccc(C2(c3ccc(N(C)C(C)=O)cc3)CCCCCC2)cc1	25%	–
CCN(CC)C(=O)Oc1ccc(C(CC)(CC)c2ccc(N(C)C(C)=O)c(C)c2)cc1C	22%	–
CCCN(CCC)C(=O)Oc1ccc(C(CC)(CC)c2ccc(N(C)C(C)=O)cc2)cc1	77%	IC50 [3]: 2.9 µM; inhibition [1]: 26%
CCC(CC)(c1ccc(OC(=O)N(Cc2ccccc2)Cc2ccccc2)cc1)c1ccc(N(C)C(C)=O)cc1	–	IC50 [3]: 0.84 µM; inhibition [1]: 51%
CCCCN(CCCC)C(=O)Oc1ccc(C(CC)(CC)c2ccc(N(C)C(C)=O)cc2)cc1	–	inhibition [1]: 32%
CCN(CC)C(=O)Oc1ccc(C(CC)(CC)c2ccc(N(C)C(C)=O)cc2)cc1C	56%	–
CCN(CC)C(=O)Oc1ccc(C(C)(C)c2ccc(N(C)C(C)=O)cc2)cc1	16%	–
CCC(CC)(c1ccc(OC(=O)N2CCN(C)CC2)cc1)c1ccc(N(C)C(C)=O)cc1	17%	–
CCC(CC)(c1ccc(OC(=O)N2CCCCCC2)cc1)c1ccc(N(C)C(C)=O)cc1	70%	IC50 [3]: 4.7 µM
CCN(CC)C(=O)Oc1ccc(C2(c3ccc(N(C)C(C)=O)cc3)CCCC2)cc1	5%	–
CCC(CC)(c1ccc(OC(=O)N(C)C)cc1)c1ccc(N(C)C(C)=O)cc1	29%	–
CCC(CC)(c1ccc(OC(=O)N(C(C)C)C(C)C)cc1)c1ccc(N(C)C(C)=O)cc1	72%	IC50 [3]: 4 µM
CCC(CC)(c1ccc(OC(=O)N2CCOCC2)cc1)c1ccc(N(C)C(C)=O)cc1	15%	–
CCN(CC)C(=O)Oc1ccc(C(CC)(CC)c2ccc(NC(C)=O)c(C)c2)cc1C	17%	–
CCN(CC)C(=O)Oc1ccc(C2(c3ccc(N(C)C(C)=O)cc3)CCCCC2)cc1	46%	–
CCC(CC)(c1ccc(OC(=O)N2CCCCC2)cc1)c1ccc(N(C)C(C)=O)cc1	68%	IC50 [3]: 4.7 µM
CCN(CC)C(=O)Oc1ccc(C(CC)(CC)c2ccc(N(C)C(C)=O)c(C)c2)cc1	25%	–
CCC(CC)(c1ccc(OC(=O)N2CCCCCCC2)cc1)c1ccc(N(C)C(C)=O)cc1	–	inhibition [1]: 20%
CCN(CC)C(=O)Oc1ccc(C(CC)(CC)c2ccc(N(C)C(C)=O)cc2)cc1	65%	IC50 [3]: 9.2 µM
CCC(CC)(c1ccc(OC(=O)N2CCCC2)cc1)c1ccc(N(C)C(C)=O)cc1	57%	–
B1	–	Km [4]: 9.1 µM; Vmax [4]: 13.4 nM/h
